This passage reports absorbance coefficient results from US6531117B2, “Aqueous dispersion of water-insoluble organic UV filter substances” (BASF Aktiengesellschaft, priority 2000, dated 2003).

A short description of the series: UV absorption (absorbance coefficient). As to conditions: 314 nm. In kind it is physicochemical. An excerpt: Uvinul® T150 is notable for good UV absorption properties and an extremely high absorbance coefficient of >1500 and 314 nm.

The compound `CCCCC(CC)COC(=O)c1ccc(Nc2nc(Nc3ccc(C(=O)OCC(CC)CCCC)cc3)nc(Nc3ccc(C(=O)OCC(CC)CCCC)cc3)n2)cc1` (stereo not shown) [Uvinul® T150, 2,4,6-trianilino-p-(carbo-2′-ethylhexyl-1′-oxy)-1,3,5-triazine] came in with an absorbance coefficient greater than 1500.
